According to patent US11542316B2, “S-Arrestin peptides and therapeutic uses thereof” (APITOPE INTERNATIONAL NV, priority 2017, dated 2023):
Ends that are not written are not given here.

What was measured:
[1] = system: SAg-specific hybridoma cells / T cell line with VAVY APC; experiment: Antigen Processing Independent Presentation System (APIPS) assay, fresh or fixed VAVY APC; type: cell-based, DR3 mice; conditions: DR3 hybridoma clone (IL-2, 48 h) or T cell line (IFN-γ, 24 h)
Description: (§1) FIG. 2: identification of apitopes within HIP-115. (A) DR3 mice were immunized with SAg and hybridomas were generated. 5×10^4 SAg-specific hybridoma cells were cultured with 5×10^4 fresh or fixed commercial APC (VAVY) cells. T cell proliferation was measured by IL-2 ELISA on supernatants collected after 48 h. The graph represents the mean of duplicate measurements±SEM. (B) DR3 mice were immunized with HIP-115 and a T cell line was established. Ten days after immunization the LN and spleens were harvested and cultured with different concentrations of peptide (0.1-1-2.5 and 5 μg/ml); 2×10^6 cells/ml APC+1×10^6 cells/ml CD4 T cells per well. At day 7 the cells were re-stimulated with the same concentrations of peptide. On day 14 an APIPS test was done using commercial APC (VAVY). After 24 h, antigen-induced T cell activation was measured by IFN-γ ELISA and shown as IFN-γ concentration (pg/ml). The graph represents the mean of duplicate measurements±SEM. LN, lymph nodes; APC, Antigen presenting cell; APIPS, Antigen Processing Independent Presentation System.
as §1, with “3:” for “2:”, “HIP-241125.” for “HIP-115.”, “HIP-241125+HIP-24DG” for “HIP-115”
(§2) FIG. 5: Identification of apitopes within HIP-17GN. DR3 mice were immunized with HIP-17GN and a T cell line was established. Ten days after immunization the LN and spleens were harvested and cultured with different concentrations of peptide (0.1-1-2.5 and 5 μg/ml); 2×10^6 cells/ml APC+1×10^6 cells/ml CD4 T cells per well. At day 7 the cells were re-stimulated with the same concentrations of peptide. On day 14 an APIPS test was done using commercial APC (VAVY). After 24 h, antigen-induced T cell activation was measured by IFN-γ ELISA and shown as OD values. The graph represents the mean of triplicate measurements±SEM. LN, lymph nodes; APC, Antigen presenting cell; APIPS, Antigen Processing Independent Presentation System.
as §2, with “6:” for “5:”, “HIP-12AK.” for “HIP-17GN.”, “HIP-12AK” for “HIP-17GN”, “IFN-γ concentration (pg/ml).” for “OD values.”, “duplicate” for “triplicate”
Antigen-specific clones or TCL were tested for their reactivity to the peptides, presented by fixed or not fixed (fresh) cells (VAVY or MGAR) (=APCs). 5×10^4 cells from the individual clones were cultured with 10 μg/ml peptide and 5×10^4 fixed or fresh APCs. […]

[2] = system: LN cells and splenocytes upon SAg or peptide restimulation; experiment: Ex vivo tolerization experiment, DR3tg mice; type: in vivo; conditions: DR3 mice, IFN-γ; for tolerization against SAg: escalating dose regime s.c.
Description: FIG. 7: Ex vivo tolerisation protocol. Mice are injected subcutaneously in the flank with 0.1 μg/ml, 1 μg/ml and 10 μg/ml peptide on days −15, −13 and −11, followed by 3 injections of 100 μg/ml on days −8, −6 and −4 (escalating dose regime). On day 0, mice are immunized subcutaneously at the base of the tail with SAg/CFA or peptide/CFA. Mice are sacrificed 10 days after immunization to measure proliferation of LN cells and splenocytes upon SAg or peptide restimulation. LN, lymph nodes.
FIG. 8: Ex vivo tolerance induction by HIP-115NE3-KKK apitope. DR3 mice are injected subcutaneously in the flank with 0.1 μg/ml, 1 μg/ml and 10 μg/ml HIP-115NE3-KKK on days −15, −13 and −11, followed by 3 injections of 100 μg/ml on days −8, −6 and −4 (escalating dose regime). On day 0, mice are immunized subcutaneously at the base of the tail with HIP-115/CFA. Mice are sacrificed 10 days after immunization to measure proliferation of LN cells and splenocytes upon SAg or peptide restimulation. Data represent mean±SEM of the concentration or OD values for the PBS-treated mice (black lines) and peptide-treated mice (color lines). Two-way ANOVA was used to measure overall treatment effects on T cell activation and p-values are written in the graphs. Bonferonni post-hoc testing was used and significant differences are indicated in the graphs (* p<0.05; **** p<0.0001). LN, lymph nodes. (A) Tolerisation against SAg in LN. IFN-γ production expressed as IFN-γ concentration (pg/ml). (B) Tolerisation against SAg in spleen. IFN-γ production expressed as IFN-γ concentration (pg/ml). (C) Tolerisation against HIP-115 and HIP-115NE3 peptides in LN. IFN-γ production expressed as OD values. (D) Tolerisation against HIP-115 and HIP-115NE3 peptides in spleen. IFN-γ production expressed as OD values.
FIG. 9: Ex vivo tolerance induction by HIP-11B apitope. DR3 mice are injected subcutaneously in the flank with 0.1 μg/ml, 1 μg/ml and 10 μg/ml HIP-11B on days −15, −13 and −11, followed by 3 injections of 100 μg/ml on days −8, −6 and −4 (escalating dose regime). On day 0, mice are immunized subcutaneously at the base of the tail with HIP-11B/CFA. Mice are sacrificed 10 days after immunization to measure proliferation of LN cells and splenocytes upon SAg or peptide restimulation. Data represent mean±SEM of the concentration values for the PBS-treated mice (black lines) and peptide-treated mice (color lines). IFN-γ production expressed as IFN-γ concentration (pg/ml). Two-way ANOVA was used to measure overall treatment effects on T cell activation and p-values are written in the graphs. Bonferonni post-hoc testing was used and significant differences are indicated in the graphs (* p<0.05; **** p<0.0001). LN, lymph nodes. (A) Tolerisation against SAg in LN. (B) Tolerisation against SAg in spleen. (C) Tolerisation against HIP-11B peptide in LN. (D) Tolerisation against HIP-11B peptide in spleen.
FIG. 10: Ex vivo tolerance induction by HIP-24DG apitope. DR3 mice are injected subcutaneously in the flank with 0.1 μg/ml, 1 μg/ml and 10 μg/ml HIP-24DG on days −15, −13 and −11, followed by 3 injections of 100 μg/ml on days −8, −6 and −4 (escalating dose regime). On day 0, mice are immunized subcutaneously at the base of the tail with HIP-24DG+HIP-24HM/CFA. Mice are sacrificed 10 days after immunization to measure proliferation of LN cells and splenocytes upon SAg or peptide restimulation. Data represent mean±SEM of the OD values for the PBS-treated mice (black lines) and peptide-treated mice (color lines). IFN-γ production expressed as OD values. LN, lymph nodes. Two-way ANOVA was used to measure overall treatment effects on T cell activation and p-values are written in the graphs. Bonferonni post-hoc testing was used and significant differences are indicated in the graphs (* p<0.05; ** p<0.01; *** p<0.001: **** p<0.0001). LN, lymph nodes. (A) Tolerisation against SAg in LN. (B) Tolerisation against HIP-24DG in LN. (C) Tolerisation against HIP-24HM2 peptide in LN. […]

[3] = Solubility of peptides; type: physicochemical
Description: The solubility of potential apitopes from S—Ag are determined by visual observations and turbidity measurement by UV spectrophotometry at 280 nm. The solubility of the peptides can be modified by adding amino acids ‘GKK’ or ‘KKK’ (or similar) on both the C- and N-terminus of the sequence. Modifications that may be suitable are described in WO2014/072958 (which is hereby incorporated by reference).
For some of these peptides, the parental peptides were insoluble, and solubility is a critical parameter for them to work as a tolerogenic peptide. Several end-terminal modifications can be used and as example used here they were improved by addition of 3 lysines before and after the original peptide sequence (labelled as ‘-KKK’ versions).

| Substance | behaves as apitope (response to peptide presented by fresh or fixed APC) [1] | further results |
| --- | --- | --- |
| FKKISRDKSVTIY-NH2 [HIP-115NE2, FKKISRDKSVTIY] | behave as apitopes | – |
| KKKVIGLTFRRDLYFSRVQVYPPVGKKK-NH2 [HIP-17GN-KKK] | behave as apitopes | tolerization against SAg ([2]; spleen): tolerization induced |
| HVIFKKISRDKSVTIYLGN-NH2 [HIP-115NE, HVIFKKISRDKSVTIYLGN] | behave as apitopes | – |
| LTLLPLLANNRERRGIALDG-NH2 [HIP-24HM] | behave as apitopes | – |
| GILVSYQIKVK-NH2 [HIP-12G1, GILVSYQIKVK] | behave as apitopes | – |
| KKKVLGILVSYQIKVKLTKKK-NH2 [HIP-12E-KKK] | behave as apitopes | – |
| PLLANNRERRGI-NH2 [HIP-24HM2, PLLANNRERRGI] | behave as apitopes | solubility [3]: soluble |
| KKISRDKSVTI-NH2 [HIP-115NE1, KKISRDKSVTI] | behave as apitopes | – |
| NRERRGIALDGKIKHED-NH2 [HIP-11AC, NRERRGIALDGKIKHED] | behave as apitopes | – |
| ERRGIALDGKIKH-NH2 [HIP-11AC1, ERRGIALDGKIKH] | behave as apitopes | – |
| LTLLPLLANNRERRGIALDGKIKHEDTNLASSTIIKEG-NH2 [HIP-241125] | behave as apitopes | – |
| VIGLTFRRDLYFSRVQVYPPVG-NH2 [HIP-17GN] | behave as apitopes | – |
| RERRGIALDGKIKHE-NH2 [HIP-11B, RERRGIALDGKIKHE] | behave as apitopes | tolerization against the peptide itself / peptides of the same region ([2]; LN): tolerization induced; tolerization against SAg ([2]; LN): tolerization induced; tolerization against the peptide itself ([2]; spleen): tolerization induced; tolerization against SAg ([2]; spleen): tolerization induced |
| HIP-17K1-KKK: '-KKK' version (3 lysines before and after the sequence) of HIP-17K1; its sequence is not printed (KKKTFRRDLYFSRVQKKK) | behave as apitopes | – |
| LTFRRDLYFSRVQVY-NH2 [HIP-17J, LTFRRDLYFSRVQVY] | behave as apitopes | – |
